Assay results reported in US20140005119A1, “COMPOSITIONS AND METHODS FOR INHIBITING THE ACTIVITY OF P110a MUTANT PROTEINS” (Case Western Reserve University, priority 2012, published 2014).

System: AKT and Foxo1 phosphorylation
Assay: Immunoblot of AKT signaling in peptide-treated xenograft tumors
Type: in vivo, mice
Method: FIG. 6 is an immunoblot illustrating the stapled mutant peptide inhibits AKT signaling in xenograft tumors.
Five-week-old male athymic nude mice were injected with 5 million cells subcutaneously and bilaterally. When tumor sizes reached 100-150 mm^3, 10 mice with similar sized tumors on both flanks were selected. The left flank tumors were injected with stapled WT p110α peptide, whereas the right flank tumors were injected with stapled p110α E545K mutant peptide. Each tumor was injected with 250 μg of peptide daily for 14 days. Control xenograft tumors were injected with an equal volume of water. The tumor sizes were measured every 2 days.

[1] = peptide-treated xenograft tumors

In the case of “H2N-SEITKQEK-D^549-FLW-S^553-HRHYC-COOH [stapled mutant peptide]”, the “AKT signaling in xenograft tumors” value (FIG. 6 legend) is reported as “inhibits”, the “AKT and Foxo1 phosphorylation in xenograft tumors” value [1] is reported as “reduced” and the “AKT phosphorylation at T308 and S473 residues in xenograft tumors” value [1] is reported as “only decreased AKT phosphorylation at the S473 residue”.
